According to EPA's ToxValDB 9.5 (doi:10.2903/j.efsa.2012.2799):

Columns and labels:
Canidae = settings: Dog Other
Mus musculus = settings: short-term; duration: 14 days

**Q.** For O=C(O)COC(=O)c1cc(Oc2ccc(C(F)(F)F)cc2Cl)ccc1[N+](=O)[O-], which NOAEL (Canidae; subchronic, duration: 1 months) is on record?
**A.** 60 mg/kg-day

**Q.** For S=C1NCCN1 [4,5-Dihydro-2-mercaptoimidazole], which NOAEL (Rattus norvegicus; developmental, development) is on record?
**A.** 5 mg/kg-day

**Q.** Which NOAEL (Canidae; chronic, duration: 2 years) does the source give for Cc1ccc(N=CN(C)C=Nc2ccc(C)cc2C)c(C)c1 [Amitraz] here?
**A.** 1 mg/kg-day

**Q.** And the NOAEL (Canidae; subchronic, duration: 90 days)?
**A.** 1 mg/kg-day

**Q.** For CCNc1nc(Cl)nc(NC(C)C)n1 [Atrazine], which NOAEL (Rattus norvegicus; reproduction developmental) is on record?
**A.** 2.5 mg/kg-day

**Q.** How did the NOAEL (Oryctolagus sp.; reproduction developmental) turn out when c1nc[n]([Sn]([CH]2CCCCC2)([CH]2CCCCC2)[CH]2CCCCC2)n1 [Azocyclotin] was run?
**A.** 2 mg/kg-day

**Q.** For CC(C)N1C(=O)c2ccccc2NS1(=O)=O [Bentazone], which NOAEL (Rattus norvegicus; subchronic, duration: 90 days) is on record?
**A.** 25 mg/kg-day

**Q.** With N#Cc1c(Cl)c(Cl)c(Cl)c(C#N)c1Cl [Chlorothalonil] as the molecule, how does the NOAEL (Rattus norvegicus; repeat dose other) read?
**A.** 60 mg/kg-day

**Q.** With COC(=O)c1c(Cl)c(Cl)c(C(=O)OC)c(Cl)c1Cl [Chlorthal-dimethyl] as the molecule, how does the NOAEL (Rattus norvegicus; subchronic, duration: 90 days) read?
**A.** 50 mg/kg-day

**Q.** For CN/C(=N\[N+](=O)[O-])NCc1cnc(Cl)s1 [Clothianidin], which NOAEL (Oryctolagus sp.; reproduction developmental) is on record?
**A.** 10 mg/kg-day

**Q.** What about the NOAEL (Rattus norvegicus; reproduction developmental) of the same molecule?
**A.** 10 mg/kg-day

**Q.** Which NOAEL (Oryctolagus sp.; reproduction developmental) does the source give for O=C(O)C1(C(=O)Nc2ccc(Cl)cc2Cl)CC1 [Cyclanilide] here?
**A.** 3 mg/kg-day

**Q.** With C1CC[CH]([Sn+]([CH]2CCCCC2)[CH]2CCCCC2)CC1.[OH-] [Cyhexatin] as the molecule, how does the NOAEL (Oryctolagus sp.; reproduction developmental) read?
**A.** 2 mg/kg-day

**Q.** CC(Oc1ccc(Oc2ccc(Cl)cc2Cl)cc1)C(=O)O (configuration not stated) [Diclofop] was tested. Which NOAEL (Oryctolagus sp.; reproduction developmental) did it give?
**A.** 3 mg/kg-day

**Q.** How did the NOAEL (Rattus norvegicus; acute) turn out when OC(c1ccc(Cl)cc1)(c1ccc(Cl)cc1)C(Cl)(Cl)Cl [Dicofol] was run?
**A.** 15 mg/kg-day

**Q.** COC[C@H](C)N(C(=O)CCl)c1c(C)csc1C [Dimethenamid-P] was tested. Which NOAEL (Rattus norvegicus; short-term, duration: 4 days) did it give?
**A.** 25 mg/kg-day

**Q.** Which NOAEL (Oryctolagus sp.; reproduction developmental) does the source give for CC1=C(C)S(=O)(=O)CCS1(=O)=O [Dimethipin] here?
**A.** 20 mg/kg-day

**Q.** For CC(C)(C)[C@@H](O)/C(=C\c1ccc(Cl)cc1Cl)n1cncn1 [Diniconazole-M], which NOAEL (Rattus norvegicus; reproduction developmental) is on record?
**A.** 5 mg/kg-day

**Q.** For CCOP(=S)(OCC)SCCSCC [Disulfoton], which NOAEL (Rattus norvegicus; acute) is on record?
**A.** 0.3 mg/kg-day

**Q.** CCOc1ccc2c(c1)C(C)=CC(C)(C)N2 [Ethoxyquin] was tested. Which NOAEL (Canidae; acute) did it give?
**A.** 50 mg/kg-day

**Q.** Which NOAEL (Mus musculus) does the source give for CC1(c2ccc(Oc3ccccc3)cc2)OC(=O)N(Nc2ccccc2)C1=O (configuration not stated) [Famoxadone] here?
**A.** 20 mg/kg-day

**Q.** With O=C(Nc1ccccc1)Nc1ccnc(Cl)c1 [Forchlorfenuron] as the molecule, how does the NOAEL (Oryctolagus sp.; reproduction developmental) read?
**A.** 100 mg/kg-day

**Q.** What does the source list for CCOP(=O)(SC(C)CC)N1CCSC1=O (configuration not stated) [Fosthiazate]?
**A.** NOAEL (Canidae; chronic, duration: 1 years): 0.5 mg/kg-day; NOAEL (Canidae; subchronic, duration: 90 days): 0.5 mg/kg-day

**Q.** COC(=O)N(C(=O)N1CO[C@@]2(C(=O)OC)Cc3cc(Cl)ccc3C2=N1)c1ccc(OC(F)(F)F)cc1 [Indoxacarb] was tested. Which NOAEL (Rattus norvegicus; acute) did it give?
**A.** 12.5 mg/kg-day

**Q.** For ClC1C(Cl)C(Cl)C(Cl)C(Cl)C1Cl (configuration not stated) [Lindane], which NOAEL (Oryctolagus sp.; developmental, development) is on record?
**A.** 5 mg/kg-day

**Q.** With CON(C)C(=O)Nc1ccc(Cl)c(Cl)c1 [Linuron] as the molecule, how does the NOAEL (Oryctolagus sp.; developmental, development) read?
**A.** 10 mg/kg-day

**Q.** For COCC(=O)N(c1c(C)cccc1C)[C@H](C)C(=O)OC [Metalaxyl-M], which NOAEL (Rattus norvegicus; developmental, development) is on record?
**A.** 50 mg/kg-day

**Q.** Which NOAEL (Canidae; short-term, duration: 2 weeks) does the source give for COc1cccc(C(=O)NN(C(=O)c2cc(C)cc(C)c2)C(C)(C)C)c1C [Methoxyfenozide] here?
**A.** 20 mg/kg-day

**Q.** With C[n+]1ccc(-c2cc[n+](C)cc2)cc1 [Paraquat] as the molecule, how does the NOAEL (Canidae; subchronic, duration: 90 days) read?
**A.** 0.5 mg/kg-day

**Q.** CCOP(=S)(OCC)Oc1ccc([N+](=O)[O-])cc1 [Parathion] was tested. Which NOAEL (Rattus norvegicus; acute) did it give?
**A.** 0.5 mg/kg-day

**Q.** Which NOAEL (Rattus norvegicus; acute) does the source give for CCOP(=S)(OCC)SCSCC [Phorate] here?
**A.** 0.3 mg/kg-day

**Q.** For CC12CC1(C)C(=O)N(c1cc(Cl)cc(Cl)c1)C2=O (configuration not stated) [Procymidone], which NOAEL (Rattus norvegicus; developmental, development) is on record?
**A.** 3.5 mg/kg-day

**Q.** CCCSP(=O)(OCC)Oc1ccc(Br)cc1Cl (configuration not stated) [Profenofos] was tested. Which NOAEL (Rattus norvegicus; acute) did it give?
**A.** 100 mg/kg-day

**Q.** CC(C)N(C(=O)CCl)c1ccccc1 [Propachlor] was tested. Which NOAEL (Oryctolagus sp.; developmental, development) did it give?
**A.** 58 mg/kg-day

**Q.** How did the NOAEL (Oryctolagus sp.; developmental, development) turn out when COC(=O)N(OC)c1ccccc1COc1ccn(-c2ccc(Cl)cc2)n1 [Pyraclostrobin] was run?
**A.** 3 mg/kg-day

**Q.** How did the NOAEL (Rattus norvegicus; acute) turn out when CCNc1nc(Cl)nc(NCC)n1 [Simazine] was run?
**A.** 2.5 mg/kg-day

**Q.** With CS(=O)(=O)c1ccc(C(=O)C2C(=O)CCCC2=O)c(Cl)c1COCC(F)(F)F [Tembotrione] as the molecule, how does the NOAEL (Oryctolagus sp.; developmental, development) read?
**A.** 1 mg/kg-day

**Q.** For CCOP(=S)(OCC)SCSC(C)(C)C [Terbufos], which NOAEL (Rattus norvegicus; acute) is on record?
**A.** 0.2 mg/kg-day

**Q.** For CN1COCN(Cc2cnc(Cl)s2)/C1=N/[N+](=O)[O-] [Thiamethoxam], which NOAEL (Oryctolagus sp.; developmental, development) is on record?
**A.** 50 mg/kg-day

**Q.** O=C(Nc1ccccc1)Nc1cnns1 [Thidiazuron] was tested. Which NOAEL (Oryctolagus sp.; developmental, development) did it give?
**A.** 25 mg/kg-day

**Q.** CCN(CC)C(=O)SCc1ccc(Cl)cc1 [Thiobencarb] was tested. Which NOAEL (Rattus norvegicus; developmental, development) did it give?
**A.** 25 mg/kg-day

**Q.** With Cc1cc(Cl)ccc1OCCCC(=O)O [Thitrol] as the molecule, how does the NOAEL (Oryctolagus sp.; developmental, development) read?
**A.** 5 mg/kg-day

**Q.** With CCOC(=O)CSc1nc(C(C)(C)C)nn1C(=O)N(C)C [Triazamate] as the molecule, how does the NOAEL (Canidae; acute) read?
**A.** 1.5 mg/kg-day

**Q.** CC(=O)[O][Sn]([c]1ccccc1)([c]1ccccc1)[c]1ccccc1 [Triphenyltin acetate] was tested. Which NOAEL (Oryctolagus sp.; reproduction developmental) did it give?
**A.** 0.1 mg/kg-day

**Q.** Which NOAEL (Oryctolagus sp.; reproduction developmental) does the source give for [OH-].c1cc[c]([Sn+]([c]2ccccc2)[c]2ccccc2)cc1 [Triphenyltin hydroxide] here?
**A.** 0.1 mg/kg-day

**Q.** How did the NOAEL (Rattus norvegicus; developmental, development) turn out when C=CC1(C)OC(=O)N(c2cc(Cl)cc(Cl)c2)C1=O (configuration not stated) [Vinclozolin] was run?
**A.** 6 mg/kg-day
